Several values for one entry are separate records, joined by “and”; a condition that tells them apart may be missing. Equal entries are not always repeated. Inconclusive results and toxic doses are left out. How the source made its calls: active means survival T/C of 150% or more; inactive means T/C below 125% in these data.
Test system: P388 leukemia ip, CD2F1 mice, survival T/C
Test: NCI In Vivo Anticancer Drug Screen. Data for tumor model P388 Leukemia (intraperitoneal) in CD2F1 (CDF1) mice
Details: endpoint: median survival time, higher = longer survival
In short: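 Mice carrying the transplanted tumor received test compound or vehicle. Survival was recorded in each group, and the value is the treated-group measurement divided by that of the vehicle-treated control group.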

[1] = dose: 50.0 mg/kg/injection, schedule: Q01DX009 (ip), vehicle: saline
[2] = dose: 100.0 mg/kg/injection, schedule: Q01DX009 (ip), vehicle: saline
[3] = dose: 200.0 mg/kg/injection, schedule: Q01DX009 (ip), vehicle: saline
[4] = dose: 400.0 mg/kg/injection, schedule: Q01DX009 (ip), vehicle: saline
[5] = dose: 100.0 mg/kg/injection, schedule: Q01DX001 (ip), vehicle: saline
[6] = dose: 200.0 mg/kg/injection, schedule: Q01DX001 (ip), vehicle: saline
[7] = dose: 400.0 mg/kg/injection, schedule: Q01DX001 (ip), vehicle: saline
[8] = dose: 60.0 mg/kg/injection, schedule: Q01DX005 (ip), vehicle: saline with Tween-80
[9] = dose: 120.0 mg/kg/injection, schedule: Q01DX005 (ip), vehicle: saline with Tween-80
[10] = dose: 240.0 mg/kg/injection, schedule: Q01DX005 (ip), vehicle: saline with Tween-80
[11] = dose: 50.0 mg/kg/injection, schedule: Q01DX005 (ip), vehicle: Klucel (hydroxypropylcellulose) (HPC)
[12] = dose: 100.0 mg/kg/injection, schedule: Q01DX005 (ip), vehicle: Klucel (hydroxypropylcellulose) (HPC)
[13] = dose: 200.0 mg/kg/injection, schedule: Q01DX005 (ip), vehicle: Klucel (hydroxypropylcellulose) (HPC)

Measured: T/C

NC(CSCCc1ccncc1)C(=O)O (centres undefined)
inactive: dose: 6.25 mg/kg/injection, schedule: Q01DX009 (ip), vehicle: saline 103 % of control | dose: 12.5 mg/kg/injection, schedule: Q01DX009 (ip), vehicle: saline 105 % of control | dose: 25.0 mg/kg/injection, schedule: Q01DX009 (ip), vehicle: saline 96 % of control

OC(C/C=C/c1ccccc1)(c1ccccc1)c1ccccc1
inactive: [1] 109 % of control | [2] 100 % of control | [3] 91 % of control

O=C(NC1CCCCC1)N1CCCC1
inactive: [1] 99 % of control | dose: 100.0 mg/kg/injection, schedule: Q01DX009 (ip), vehicle: saline with Tween-80 91 % of control | [2] 95 % of control | dose: 200.0 mg/kg/injection, schedule: Q01DX009 (ip), vehicle: saline with Tween-80 86 % of control | [3] 102 % of control

COC1/C=C\C=C(/C)C(=O)NC2=CC(=O)C(NCCCl)=C(CC(C)CC(OC)C(O)C(C)/C=C(/C)C1OC(N)=O)C2=O (centres undefined)
inactive: dose: 1.5 mg/kg/injection, schedule: Q01DX009 (ip), vehicle: DMSO 107 % of control | dose: 3.0 mg/kg/injection, schedule: Q01DX009 (ip), vehicle: DMSO 108 % of control | dose: 3.12 mg/kg/injection, schedule: Q04DX002 (ip), vehicle: saline with Tween-80 115 % of control | dose: 5.0 mg/kg/injection, schedule: Q04DX002 (ip), vehicle: saline with Tween-80 111 % of control | dose: 6.0 mg/kg/injection, schedule: Q01DX009 (ip), vehicle: DMSO 111 % of control | dose: 6.25 mg/kg/injection, schedule: Q04DX002 (ip), vehicle: saline with Tween-80 123 % of control | dose: 12.0 mg/kg/injection, schedule: Q01DX009 (ip), vehicle: DMSO 117 % of control | dose: 12.5 mg/kg/injection, schedule: Q04DX002 (ip), vehicle: saline with Tween-80 119 % of control | dose: 20.0 mg/kg/injection, schedule: Q04DX002 (ip), vehicle: saline with Tween-80 122 % of control

CCCCCCCN(CCCCCCC)CC(O)c1c(Br)c2ccccc2c2ccccc12 (centres undefined)
inactive: dose: 10.0 mg/kg/injection, schedule: Q01DX009 (ip), vehicle: saline with Tween-80 115 % of control | dose: 20.0 mg/kg/injection, schedule: Q01DX009 (ip), vehicle: saline with Tween-80 115 % of control | dose: 40.0 mg/kg/injection, schedule: Q01DX009 (ip), vehicle: saline with Tween-80 98 % of control

C[Si]1(C)CCCCC1
inactive: [1] 102 % of control | [2] 95 % of control | [3] 101 % of control | [4] 102 % of control

CCCCNC(=O)N(CC)c1ccccc1
inactive: [5] 109 % of control | [6] 113 % of control | [7] 109 % of control

CC1(C)OCC(N)(CO)CO1
inactive: [1] 107 % of control | [2] 102 % of control | [3] 98 % of control | [4] 98 % of control

COC(=O)c1nnn(-c2c(C)cccc2C(C)C)c1C(=O)c1ccccc1
inactive: [8] 100 % of control | [9] 109 % of control | [10] 94 % of control

CCCCCCCCOC(=O)Nc1ccc(OCC)cc1
inactive: dose: 0.75 mg/kg/injection, schedule: Q01DX009 (ip), vehicle: saline with Tween-80 92 % of control | dose: 1.5 mg/kg/injection, schedule: Q01DX009 (ip), vehicle: saline with Tween-80 97 % of control | dose: 3.0 mg/kg/injection, schedule: Q01DX009 (ip), vehicle: saline with Tween-80 104 % of control

Cc1ccc(S(=O)(=O)C(CC(=O)CCN(C)C)c2ccccc2)cc1 (centres undefined)
inactive: dose: 25.0 mg/kg/injection, schedule: Q04DX002 (ip), vehicle: saline 100 % of control | [1] 96 % of control | dose: 50.0 mg/kg/injection, schedule: Q04DX002 (ip), vehicle: saline 103 % of control and 95 % of control | [2] 102 % of control | dose: 100.0 mg/kg/injection, schedule: Q04DX002 (ip), vehicle: saline 100 % of control | dose: 200.0 mg/kg/injection, schedule: Q04DX002 (ip), vehicle: saline 100 % of control

N#CC(O)Cc1ccccc1 (centres undefined)
inactive: dose: 2.5 mg/kg/injection, schedule: Q04DX003 (ip), vehicle: other 110 % of control | dose: 5.0 mg/kg/injection, schedule: Q04DX003 (ip), vehicle: other 105 % of control | dose: 10.0 mg/kg/injection, schedule: Q04DX003 (ip), vehicle: other 105 % of control

CCCC/C=C(\C)C(O)C(C)/C=C(\C)CCC(O)C(C)C(O)C(C)C(O)C(C)C1OC(C(C)C(=O)O)CCC1C (centres undefined)
inactive: dose: 1.5 mg/kg/injection, schedule: Q01DX005 (ip), vehicle: Klucel (hydroxypropylcellulose) (HPC) 103 % of control and 105 % of control | dose: 3.0 mg/kg/injection, schedule: Q01DX005 (ip), vehicle: Klucel (hydroxypropylcellulose) (HPC) 99 % of control and 108 % of control | dose: 6.0 mg/kg/injection, schedule: Q01DX005 (ip), vehicle: Klucel (hydroxypropylcellulose) (HPC) 102 % of control and 109 % of control | dose: 12.0 mg/kg/injection, schedule: Q01DX005 (ip), vehicle: Klucel (hydroxypropylcellulose) (HPC) 99 % of control and 100 % of control

COC(=O)C1=C/C=C\CN(C(c2ccccc2)c2ccccc2)/C=C\1C(=O)OC
inactive: dose: 50.0 mg/kg/injection, schedule: Q01DX009 (ip), vehicle: suspension in saline 100 % of control | [5] 100 % of control | dose: 100.0 mg/kg/injection, schedule: Q01DX009 (ip), vehicle: suspension in saline 89 % of control | [6] 100 % of control | dose: 200.0 mg/kg/injection, schedule: Q01DX009 (ip), vehicle: suspension in saline 95 % of control | [7] 97 % of control | dose: 400.0 mg/kg/injection, schedule: Q01DX009 (ip), vehicle: suspension in saline 104 % of control

O=C(c1ccccc1)C1Nc2ccc(Cl)cc2C2C=CCC12 (centres undefined)
inactive: [8] 102 % of control | [9] 94 % of control | [10] 93 % of control

COc1cc2c(cc1OC)[C@@H](CO)[C@H]1c3cc4c(cc3CCN1C2)OCO4
inactive: dose: 50.0 mg/kg/injection, schedule: Q04DX003 (ip), vehicle: distilled water + Tween-80 106 % of control and 115 % of control | dose: 100.0 mg/kg/injection, schedule: Q04DX003 (ip), vehicle: distilled water + Tween-80 100 % of control and 98 % of control | dose: 200.0 mg/kg/injection, schedule: Q04DX003 (ip), vehicle: distilled water + Tween-80 105 % of control and 120 % of control

O=C(O)c1ccc(C(=O)c2ccc([N+](=O)[O-])cc2)cc1
inactive: [8] 103 % of control | [9] 104 % of control | [10] 103 % of control

O=C1C=CC(=O)N1c1ccc(O)cc1
inactive: dose: 1.25 mg/kg/injection, schedule: Q01DX009 (ip), vehicle: saline sonified 95 % of control | dose: 2.5 mg/kg/injection, schedule: Q01DX009 (ip), vehicle: saline sonified 95 % of control

CC(C)(C)OC(=O)CS(=O)(=O)Nc1ccccc1O
inactive: dose: 60.0 mg/kg/injection, schedule: Q01DX005 (ip), vehicle: Klucel (hydroxypropylcellulose) (HPC) 106 % of control | dose: 120.0 mg/kg/injection, schedule: Q01DX005 (ip), vehicle: Klucel (hydroxypropylcellulose) (HPC) 86 % of control | dose: 240.0 mg/kg/injection, schedule: Q01DX005 (ip), vehicle: Klucel (hydroxypropylcellulose) (HPC) 97 % of control

CNC(=O)Nc1ccnc(=O)[nH]1
inactive: [11] 116 % of control

CCOC(=O)N1c2ccccc2C(c2ccccc2)=NC1(C)C#N (centres undefined)
inactive: dose: 50.0 mg/kg/injection, schedule: Q01DX005 (ip), vehicle: saline with Tween-80 97 % of control | dose: 100.0 mg/kg/injection, schedule: Q01DX005 (ip), vehicle: saline with Tween-80 99 % of control | dose: 200.0 mg/kg/injection, schedule: Q01DX005 (ip), vehicle: saline with Tween-80 99 % of control

C=C(CC(O)(C(F)(F)F)C(F)(F)F)CC(O)(C(F)(F)F)C(F)(F)F
inactive: dose: 3.13 mg/kg/injection, schedule: Q01DX005 (ip), vehicle: saline with Tween-80 102 % of control | dose: 6.25 mg/kg/injection, schedule: Q01DX005 (ip), vehicle: saline with Tween-80 104 % of control | dose: 12.5 mg/kg/injection, schedule: Q01DX001 (ip), vehicle: saline with Tween-80 99 % of control | dose: 12.5 mg/kg/injection, schedule: Q01DX005 (ip), vehicle: saline with Tween-80 107 % of control | dose: 25.0 mg/kg/injection, schedule: Q01DX001 (ip), vehicle: saline with Tween-80 99 % of control

Cc1cnc(NCCCNc2ncc(C)c(-c3ccccc3O)n2)nc1-c1ccccc1O
inactive: [11] 88 % of control | [12] 86 % of control | [13] 92 % of control

CCc1cccc(CC)c1NC(=O)C(Sc1nc(-c2cccs2)cc(C(F)(F)F)c1C#N)c1ccccc1 (centres undefined)
inactive: [11] 94 % of control | [12] 94 % of control | [13] 89 % of control
